Laboratory results as given in ChEMBL document CHEMBL1201862, “PubChem BioAssay data set” (2004).
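Growth conditions: 96-well plates. Treatment: test compound, 48 hours, 5 concentrations. Analysis: linear interpolation between bracketing concentrations; unreached endpoints set to highest concentration. The concentration for 50% growth inhibition is given as GI50.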 Calls of active or inactive are those of the source. Rule as the data show it: active = GI50 up to about 1.1 µM and inactive = higher.

Columns and labels:
Assay in all cases: NCI-60 cell line screen, 48 h
[1] = test system: COLO 205
[2] = test system: HCC 2998
[3] = test system: HL-60
[4] = test system: HOP-92
[5] = test system: HT-29
[6] = test system: MDA-MB-231
[7] = test system: MDA-MB-435
[8] = test system: NCI-H226
[9] = test system: OVCAR-3
[10] = test system: OVCAR-5
[11] = test system: OVCAR-8
[12] = test system: PC-3
[13] = test system: SF-295
[14] = test system: SK-MEL-5
[15] = test system: SN12C
[16] = test system: SNB-75
[17] = test system: T47D
[18] = test system: TK-10
[19] = test system: SNB-19

Measured: GI50

c1cc2nsnc2c2c[nH]cc12
inactive: [1] > 100 µM | [2] > 100 µM | [3] 67.1 µM | [4] 28.1 µM | [5] > 100 µM | [6] 56.6 µM | [7] 40.6 µM | [8] 99.5 µM | [9] > 100 µM | [10] 47.4 µM | [11] 34.2 µM | [12] 45.1 µM | [13] > 100 µM | [14] 61.4 µM | [15] > 100 µM | [16] 50.6 µM | [17] 21 µM | [18] > 100 µM

COC1=CC2(CC(OC)=C1OC)OC21COc2ccccc2C1=O (stereo unspecified)
inactive: [1] > 100 µM | [2] > 100 µM | [3] 32.4 µM | [4] > 100 µM | [5] 51.4 µM | [6] > 100 µM | [7] > 100 µM | [8] 62.5 µM | [9] > 100 µM | [10] > 100 µM | [11] > 100 µM | [12] 84.5 µM | [13] 61.2 µM | [14] 43 µM | [15] 47.2 µM | [19] 65.2 µM | [16] 37.4 µM | [17] 34.3 µM | [18] > 100 µM

CCOC(=O)Cn1c(=O)c2cc(-c3ccccc3)cc3c(Cl)nc4c(OC)c(OC)cc1c4c32
inactive: [1] 50.6 µM | [2] 16.7 µM | [3] 4.89 µM | [4] 10.7 µM | [5] 13.8 µM | [6] 17.6 µM | [7] 17.4 µM | [8] > 39.6 µM | [9] 20.9 µM | [10] > 100 µM | [11] 15.6 µM | [12] 15.9 µM | [13] 40.7 µM | [14] 24.7 µM | [15] 16.2 µM | [19] 19 µM | [16] 15.3 µM | [17] 16 µM | [18] 31.7 µM

O=C1c2c[nH]nc2C(c2ccccc2)N1c1ccccc1 (stereo unspecified)
inactive: [1] > 10 µM | [2] > 10 µM | [3] > 10 µM | [4] > 10 µM | [5] > 10 µM | [6] > 10 µM | [7] > 10 µM | [8] > 10 µM | [9] > 10 µM | [10] > 10 µM | [11] > 10 µM | [12] > 10 µM | [13] > 10 µM | [14] > 10 µM | [15] > 10 µM | [19] > 10 µM | [16] > 10 µM | [17] > 10 µM | [18] > 10 µM

CC(=O)OCC1OC(n2cnc3nc(Br)[nH]c(=O)c32)C(OC(C)=O)C1OC(C)=O (stereo unspecified)
inactive: [1] > 100 µM | [2] > 100 µM | [3] > 100 µM | [4] > 100 µM | [5] > 100 µM | [6] > 100 µM | [7] > 100 µM | [8] > 100 µM | [9] > 100 µM | [10] > 100 µM | [11] > 100 µM | [12] > 100 µM | [13] > 100 µM | [14] > 100 µM | [15] > 100 µM | [19] > 100 µM | [16] 70.3 µM | [17] > 100 µM | [18] > 100 µM

COc1cc2c(c3c1c(=O)c1ccccc1n3C)C=CC1(CCCCC1)O2
inactive: [1] 4.34 µM | [2] 4.59 µM | [3] 3.88 µM | [4] 3.24 µM | [5] 2.61 µM | [6] 4.83 µM | [7] 2.38 µM | [8] 8.07 µM | [9] 3.53 µM | [10] 5.73 µM | [11] 4.81 µM | [12] 3.78 µM | [13] 1.44 µM | [14] 2.15 µM | [15] 6.28 µM | [19] > 7.18 µM | [16] 1.29 µM | [17] 4.41 µM | [18] > 8.95 µM

CC(=NNC(=S)Nc1cccc(C)c1)c1cccc(C(C)=NNC(=S)Nc2cccc(C)c2)n1
inactive: [1] 8 µM | [2] 43.3 µM | [3] 17.3 µM | [4] 17.1 µM | [5] 26.1 µM | [6] 19 µM | [7] 22.4 µM | [8] 18.6 µM | [9] 3.39 µM | [10] 34.8 µM | [11] 11 µM | [12] 22.3 µM | [13] 6.19 µM | [14] 8.89 µM | [15] 25.8 µM | [19] 30.5 µM | [16] 17.5 µM | [17] 30.8 µM | [18] 20.3 µM

CNC(=O)CCCN(C)C(=O)CCCCC(=O)N(C)C
inactive: [1] > 57.7 µM | [2] > 51.1 µM | [3] 26.7 µM | [4] > 60.1 µM | [5] > 57.1 µM | [6] > 37.8 µM | [7] > 56 µM | [8] > 67.8 µM | [9] > 92.3 µM | [10] > 100 µM | [11] > 60.8 µM | [12] > 54.3 µM | [13] > 59.2 µM | [14] 36.6 µM | [15] > 61.1 µM | [19] > 60.1 µM | [16] > 53.8 µM | [17] 35 µM | [18] > 56.8 µM

COc1cccc(N(CN2CC=CC2=O)C(C)=O)c1
inactive: [1] > 100 µM | [2] > 100 µM | [3] > 100 µM | [4] > 100 µM | [5] > 100 µM | [6] > 100 µM | [7] > 100 µM | [8] > 100 µM | [9] > 100 µM | [10] > 100 µM | [11] > 100 µM | [12] > 100 µM | [13] > 100 µM | [14] > 100 µM | [15] > 100 µM | [19] > 100 µM | [16] > 100 µM | [17] > 100 µM | [18] > 100 µM

CC(=O)Nc1cc2ccc(=O)oc2cc1Cl
inactive: [1] > 100 µM | [2] > 100 µM | [3] > 100 µM | [4] > 100 µM | [5] > 100 µM | [6] > 100 µM | [7] > 100 µM | [8] > 100 µM | [9] > 100 µM | [10] > 100 µM | [11] > 100 µM | [12] > 100 µM | [13] > 100 µM | [14] > 100 µM | [15] > 100 µM | [19] > 100 µM | [16] > 100 µM | [17] > 100 µM

CO/N=C1\CC(NC(=O)CNC(=O)OC(C)(C)C)c2ccsc21 (stereo unspecified)
inactive: [1] > 100 µM | [2] > 100 µM | [3] > 100 µM | [4] > 100 µM | [5] > 100 µM | [6] > 100 µM | [7] 90.6 µM | [8] > 100 µM | [9] > 100 µM | [10] > 100 µM | [11] > 100 µM | [12] > 100 µM | [13] > 100 µM | [14] 81.5 µM | [15] > 100 µM | [16] 53.1 µM | [17] > 100 µM | [18] > 100 µM
